Test results reported in publication PMC6934184, “Selective DNA-PKcs inhibition extends the therapeutic index of localized radiotherapy and chemotherapy” (The Journal of Clinical Investigation, 2019).

What was measured:
[1] = test system: A549 subcutaneous xenografts; assay: subcutaneous A549 xenograft with localized radiation; type: in vivo, mouse; settings: NU5455 30 mg/kg oral 30 min before 10 Gy
Description: Subcutaneous non–small cell lung cancer xenografts were generated in CD-1 nude or BALB/c nude mice using A549 and Calu-6 cells, respectively, as previously described ([53]). When tumors reached 100 mm^3, mice were randomized into 4 groups (n = 7–9 per group) to receive (a) vehicle (orally) 30 minutes before mock radiation, (b) NU5455 (30 mg/kg orally) 30 minutes before mock radiation, (c) targeted tumor radiation at a single dose of 3.3 or 10 Gy, or (d) NU5455 (30 mg/kg orally) 30 minutes before 3.3 Gy or 10 Gy targeted tumor radiation. For targeted irradiation of subcutaneous tumors, anesthetized mice were restrained in a lead-shielded container with only the tumor exposed, and x-ray radiation applied using an RS320 irradiation system (Gulmay Medical) at a dose rate of 1.82 Gy/min. […]
(§1) NSCLC subcutaneous xenografts were generated as previously described ( 53). […] Mouse weights and tumor volumes (1/2 x length x width x depth) were measured three times a week.
(§2) Targeted radiotherapy in subcutaneous and orthotopic NSCLC xenograft models When subcutaneous xenografts reached 100 mm3, mice were randomized into four groups (n = 7 - 11/group): (i) N-Methyl-2-pyrrolidone (NMP): 30% Encapsin : PEG400 (1:6:3 v/v/v) vehicle p.o. 30 minutes prior to mock radiation. […] The remaining mice were monitored for tumor growth until the sizes of tumo rs reached 400 mm 3 or up to 38 days after initiation of […]

[2] = test system: orthotopic Calu-6 lung tumors; assay: orthotopic Calu-6 lung tumor with thoracic radiation, bioluminescent imaging; type: in vivo; settings: single dose 30 mg/kg + 10 Gy thoracic radiation
Description: Orthotopic lung xenografts were generated following a published protocol ([54]) with minor modifications. Briefly, CD-1 nude mice (Charles River Laboratories) were anesthetized with 2% isoflurane and placed in the right lateral decubitus position. Luciferase-expressing Calu-6 cells (1 × 10^6) in 50 μL of 50% (vol/vol) Matrigel were injected into the left lateral thorax at the lateral dorsal axillary line, 1.5 cm above the lower rib line. The needle was advanced 5 mm into the thorax. After injection, the mouse was turned to the left lateral decubitus position for 5 minutes. […]
as §1, §2
Tumor growth in the remaining mice was monitored by bioluminescent imaging on days 0, 4, 8 and 15 post-treatment. […] Data were analyzed using LivingImage software (PerkinElmer). […]

HAP-1 DNA-PK–null cells = assay: clonogenic survival with IR; type: cell-based, human; settings: 5 μM concomitant
Description: (§3) Exponentially growing HAP-1 DNA-PK proficient or deficient cells were seeded into 6-well plates and allowed to re-attach. Cells were then incubated with vehicle (DMSO) or NU5455 (5 µM) 1 hour prior to irradiation and for a further 24 hours post-irradiation. Cells were then washed in PBS and incubated in drug-free medium to allow for colony formation.
(§4) To quantify the number of proliferating versus confluent cells, cells were pulsed with 5-ethynyl-2’-deoxyuridine (EdU), and labeled using the Click-iT Plus EdU Alexa Fluor 647 Flow Cytometry Assay Kit together with FxCycle Violet Stain to label DNA (both Thermo Fisher) following the manufacturer’s instructions. Samples of cells taken from tho se used in the clonogenic assay were used to confirm the percentage of cells in each cell cycle phase.
(§5) Samples were acquired on a Symphony A5 flow cytometer (Becton Dickinson, UK).
(§6) Cell cycle phase status was also confirmed by microscopy, using cells grown on coverslips i n 6-well plates. […] Coverslips were mounted using Prolong Glass with NucBlue (ThermoFisher) and images were acquired on the Leica TCS SP8 confocal fluorescence […]
(§7) Treated cells were fixed with 10% (w/v) trichloroacetic acid (Fisher) at 4°C overnight. Cells were stained with sulphorhodamine B (SRB, 0.4% (w/v) in water), and cell density quantified

[3] = test system: HAP-1 cells that express 1 copy of PRKDC; assay: clonogenic survival with IR; type: cell-based, human; settings: 5 μM concomitant
Description: as §3, §4, §5, §6, §7

CN(C(=O)CN1CCOCC1)c1ccc2sc3c(-c4cccc5c(=O)cc(N6CC7CCC(C6)O7)oc45)cccc3c2c1 [NU5455]
antitumor activity with radiation [1]: enhanced the antitumor activity | tolerability [2]: well tolerated | antitumor effect of radiation (time to 4-fold increase in bioluminescent signal) ([2]; CD-1 nude mice): enhanced the antitumor effect of the radiation | response to IR (clonogenic) (HAP-1 DNA-PK–null cells): did not alter the response | clonogenic cell-killing effect of 1–4 Gy IR [3]: markedly increased
